From patent US20250188506A1, “ANTICOAGULANT HEPARIN-CHONDROITIN CHIMERIC SACCHARIDE MOLECULE AS WELL AS PREPARATION METHOD AND APPLICATION THEREOF” (SHANDONG UNIVERSITY, priority 2023, published 2025)

Key:
PF4 = molecular target: T1, PF4 (Homo sapiens, UniProt P02776)
T1 sequence (P02776 32-101): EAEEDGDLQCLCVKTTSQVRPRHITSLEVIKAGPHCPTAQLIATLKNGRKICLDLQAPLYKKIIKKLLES

Xa factor = details: commercially available comparator, stated in advantages section; cited from earlier work

CO[C@H]1O[C@H](COS(=O)(=O)O)[C@@H](O[C@@H]2O[C@@H](C(=O)O)[C@@H](O[C@H]3O[C@H](COS(=O)(=O)O)[C@@H](O[C@@H]4O[C@H](C(=O)O)[C@@H](O[C@H]5O[C@H](COS(=O)(=O)O)[C@@H](O)[C@H](O)[C@H]5NS(=O)(=O)O)[C@H](O)[C@H]4O)[C@H](OS(=O)(=O)O)[C@H]3NS(=O)(=O)O)[C@H](O)[C@H]2OS(=O)(=O)O)[C@H](O)[C@H]1NS(=O)(=O)O [fondaparinux, fondaparinux sodium]
average particle size of compounds formed with PF4 (PF4): 61.57 nm
neutralization of activity against the Xa factor by protamine (in words) (Xa factor): almost completely not neutralized
